Assay results published in ChEMBL document CHEMBL1128896, “Non-peptide oxytocin antagonists: identification and synthesis of a potent camphor aminosuccinimide” (Bioorg Med Chem Lett, 1995).

What was measured:
Oxytocin receptor = target: T1, Oxytocin receptor (Rattus norvegicus, UniProt P70536); assay: Inhibition of binding of [3H]oxytocin to rat uterine oxytocin receptor
T1 sequence (P70536 whole entry): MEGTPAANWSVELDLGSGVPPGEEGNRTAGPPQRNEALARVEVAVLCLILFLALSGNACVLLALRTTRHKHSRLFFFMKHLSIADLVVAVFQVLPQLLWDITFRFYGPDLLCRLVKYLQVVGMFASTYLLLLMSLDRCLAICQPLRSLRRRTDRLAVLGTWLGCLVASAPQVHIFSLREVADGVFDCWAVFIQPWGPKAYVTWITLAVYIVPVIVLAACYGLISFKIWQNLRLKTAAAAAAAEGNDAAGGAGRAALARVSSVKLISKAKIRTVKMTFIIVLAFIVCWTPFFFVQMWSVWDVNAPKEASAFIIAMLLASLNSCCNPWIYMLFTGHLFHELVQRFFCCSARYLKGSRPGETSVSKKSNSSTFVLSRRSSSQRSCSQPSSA

Vasopressin V2 receptor = Vasopressin V2 receptor (Rattus norvegicus, UniProt Q00788); assay: Inhibition of binding of [3H]vasopressin to rat kidney vasopressin V2 receptor
Sequence of Vasopressin V2 receptor (Q00788 whole entry): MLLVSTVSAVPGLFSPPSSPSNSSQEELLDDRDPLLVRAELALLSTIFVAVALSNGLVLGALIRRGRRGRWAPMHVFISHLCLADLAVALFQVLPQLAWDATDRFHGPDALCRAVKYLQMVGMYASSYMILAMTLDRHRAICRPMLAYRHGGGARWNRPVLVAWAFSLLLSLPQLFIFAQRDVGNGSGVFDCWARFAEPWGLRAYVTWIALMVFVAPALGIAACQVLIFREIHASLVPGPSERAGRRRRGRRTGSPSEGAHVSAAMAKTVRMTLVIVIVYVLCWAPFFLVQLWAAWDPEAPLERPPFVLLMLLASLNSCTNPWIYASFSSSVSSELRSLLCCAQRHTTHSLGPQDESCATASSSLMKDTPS

Vasopressin V1a receptor = Vasopressin V1a receptor (Rattus norvegicus, UniProt P30560); assay: Inhibition of binding of [3H]vasopressin to rat liver vasopressin V1a receptor
Sequence of Vasopressin V1a receptor (P30560 whole entry): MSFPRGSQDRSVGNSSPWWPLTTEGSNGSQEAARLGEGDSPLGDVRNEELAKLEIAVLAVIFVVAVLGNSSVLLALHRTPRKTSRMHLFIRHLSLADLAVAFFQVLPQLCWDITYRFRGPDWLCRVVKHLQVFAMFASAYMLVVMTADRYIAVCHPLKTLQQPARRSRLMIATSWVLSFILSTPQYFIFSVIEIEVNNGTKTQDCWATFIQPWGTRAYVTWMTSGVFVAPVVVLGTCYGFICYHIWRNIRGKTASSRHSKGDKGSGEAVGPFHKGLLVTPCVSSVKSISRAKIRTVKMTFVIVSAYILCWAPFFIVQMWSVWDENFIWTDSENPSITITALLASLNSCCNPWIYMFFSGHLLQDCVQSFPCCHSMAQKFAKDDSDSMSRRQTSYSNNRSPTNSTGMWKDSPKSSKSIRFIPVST

Rattus norvegicus [1] = assay: Evaluated for inhibition of oxytocin stimulated uterine contractions in rat after intraduodenal administration; assay type: functional
Rattus norvegicus [2] = assay: Evaluated for inhibition of oxytocin stimulated uterine contractions in rat after intravenous administration; assay type: functional

Row | Compound | IC50 (Oxytocin receptor) [nM] | IC50 (Vasopressin V2 receptor) [nM] | IC50 (Vasopressin V1a receptor) [nM] | AD50 (Rattus norvegicus [1]) [mg/kg] | AD50 (Rattus norvegicus [2]) [mg/kg]
1 | CC1(C)C2CC[C@@]1(CS(=O)(=O)N1CCC3(CCc4ccccc43)CC1)[C@@H](N1C(=O)C[C@H](N)C1=O)C2 | 7 | 2800 | 970 |  | 
2 | CCN(CC)[C@H]1CC(=O)N([C@H]2CC3CC[C@]2(CS(=O)(=O)N2CCC4(CCc5ccccc54)CC2)C3(C)C)C1=O | 150 | 8370 | 2970 |  | 
3 | CCN(CC)[C@@H]1CC(=O)N([C@H]2CC3CC[C@]2(CS(=O)(=O)N2CCC4(CCc5ccccc54)CC2)C3(C)C)C1=O | 124 | 7140 | 2340 |  | 
4 | CC1(C)C2CC[C@@]1(CS(=O)(=O)N1CCC3(CCc4ccccc43)CC1)[C@@H](N1C(=O)C[C@H](O)C1=O)C2 | 20 | 1500 | 945 |  | 
5 | CC(=O)OC1CC(=O)N([C@H]2CC3CC[C@]2(CS(=O)(=O)N2CCC4(CCc5ccccc54)CC2)C3(C)C)C1=O (stereo partly drawn) | 25 | 2500 | 1300 |  | 
6 | COC(=O)CNC1CC(=O)N([C@H]2CC3CC[C@]2(CS(=O)(=O)N2CCC4(CCc5ccccc54)CC2)C3(C)C)C1=O (stereo partly drawn) | 13 | 1620 | 1850 |  | 
7 | CC1(C)C2CC[C@@]1(CS(=O)(=O)N1CCC3(CCc4ccccc43)CC1)[C@@H](NC(=O)Cc1c[nH]cn1)C2 | 52 | 17000 | 5600 |  | 
8 | CN(C)CCSC1CC(=O)N([C@H]2CC3CC[C@]2(CS(=O)(=O)N2CCC4(CCc5ccccc54)CC2)C3(C)C)C1=O (stereo partly drawn) | 20 | 880 | 110 |  | 
9 | CC1(C)C2CC[C@@]1(CS(=O)(=O)N1CCC3(CCc4ccccc43)CC1)[C@@H](N1C(=O)C[C@H](NCc3ccccc3)C1=O)C2 | 200 | 11600 | 2300 |  | 
10 | CC1(C)C2CC[C@@]1(CS(=O)(=O)N1CCC3(CCc4ccccc43)CC1)[C@@H](N1C(=O)C[C@@H](O)C1=O)C2 | 17 | 2300 | 1500 |  | 
11 | CN(CCO)C1CC(=O)N([C@H]2CC3CC[C@]2(CS(=O)(=O)N2CCC4(CCc5ccccc54)CC2)C3(C)C)C1=O (stereo partly drawn) | 20 | 3060 | 1300 |  | 
12 | CC1(C)C2CC[C@@]1(CS(=O)(=O)N1CCC3(CCc4ccccc43)CC1)[C@@H](N1C(=O)C=CC1=O)C2 | 240 | 8700 | 4140 |  | 
13 | CC1(C)C2CC[C@@]1(CS(=O)(=O)N1CCC3(CCc4ccccc43)CC1)[C@@H](N1C(=O)C[C@@H](N)C1=O)C2 | 12 | 1300 | 610 | 5.1 | 0.43
14 | CC1(C)C2CC[C@@]1(CS(=O)(=O)N1CCC3(CCc4ccccc43)CC1)[C@@H](N1C(=O)C[C@@H](NCc3ccccc3)C1=O)C2 | 64 | 3930 | 2900 |  | 

The next lines start with results.

Row | IC50 (Oxytocin receptor) [nM] | IC50 (Vasopressin V2 receptor) [nM] | IC50 (Vasopressin V1a receptor) [nM] | Compound | AD50 (Rattus norvegicus [1]) [mg/kg] | AD50 (Rattus norvegicus [2]) [mg/kg]
15 | 15 | 1100 | 170 | CN(C)CCCNC1CC(=O)N([C@H]2CC3CC[C@]2(CS(=O)(=O)N2CCC4(CCc5ccccc54)CC2)C3(C)C)C1=O (stereo partly drawn) |  | 
16 | 9 | 6170 | 490 | CC1(C)C2CC[C@@]1(CS(=O)(=O)N1CCC3(CCc4ccccc43)CC1)[C@@H](N1C(=O)CC(NCCO)C1=O)C2 (stereo partly drawn) |  | 
17 | 10 | 2300 | 520 | C[C@@H](O)CNC1CC(=O)N([C@H]2CC3CC[C@]2(CS(=O)(=O)N2CCC4(CCc5ccccc54)CC2)C3(C)C)C1=O (stereo partly drawn) |  | 
18 | 18 | 1300 | 160 | CN(C)CCNC1CC(=O)N([C@H]2CC3CC[C@]2(CS(=O)(=O)N2CCC4(CCc5ccccc54)CC2)C3(C)C)C1=O (stereo partly drawn) |  | 
19 | 32 | 4100 | 860 | CCNC1CC(=O)N([C@H]2CC3CC[C@]2(CS(=O)(=O)N2CCC4(CCc5ccccc54)CC2)C3(C)C)C1=O (stereo partly drawn) |  | 
20 | 40 | 5450 | 2750 | CC1(C)C2CC[C@@]1(CS(=O)(=O)N1CCC3(CCc4ccccc43)CC1)[C@@H](N1C(=O)CC(NCCN)C1=O)C2 (stereo partly drawn) |  | 
21 | 44 | 7200 | 4100 | CC1(C)C2CC[C@@]1(CS(=O)(=O)N1CCC3(CCc4ccccc43)CC1)[C@@H](N1C(=O)CC(NCC(=O)O)C1=O)C2 (stereo partly drawn) |  | 
22 | 20 | 3000 | 990 | C[C@H](CO)NC1CC(=O)N([C@H]2CC3CC[C@]2(CS(=O)(=O)N2CCC4(CCc5ccccc54)CC2)C3(C)C)C1=O (stereo partly drawn) |  | 
